Values joined by “and” are separate entries in the source; they are usually repeats but may differ in a detail not shown here. Equal entries are not always repeated. Where two headings read alike, the source gives them in different places.
Assays:
[1] = system: SW620 (colorectal adenocarcinoma, metastatic); assay: MTT proliferation assay, SW620 cells; assay type: cell-based, human; settings: read-out: IC50 (50% growth inhibition) SW620
Description: (§1) This study was set out to examine the anti-proliferative effects of coumarin derivates (3–18) on human tumor cell lines and normal (diploid) human fibroblasts.
(§2) Cell culturing: Human cell lines HeLa (cervical carcinoma), SW620 (colorectal adenocarcinoma, metastatic), MCF-7 (breast epithelial adenocarcinoma, metastatic), HepG2 (hepatocellular carcinoma) and BJ (normal diploid human fibroblasts) were cultured as monolayers and maintained in Dulbecco’s modified Eagle medium (DMEM) supplemented with 10% fetal bovine serum (FBS), 2 mM L-glutamine, 100 U/mL penicillin and 100 μg/mL streptomycin in a humidified atmosphere with 5% CO2 at 37 °C.
(§3) Proliferation assay: The cell lines were inoculated into a series of standard 96-well microtiter plates on day 0 at seeding density of 3,000–6,000 cells per well depending upon their specific doubling times. Freshly prepared dilutions of test compounds in culture medium in the concentration range 1 × 10^−8–1 × 10^−4 M were added to the microtiter plates, and the cells were grown for further 72 h. The solvent (DMSO) was also tested for its potential inhibitory activity by adjusting its concentration to the values used for the preparation of the working concentrations (DMSO concentration never exceeded 0.1%). After 72 h of incubation, the cell growth rate was evaluated by performing the MTT assay: experimentally determined absorbance values were transformed into the cell percentage growth (PG) using the formulas proposed by NIH and described previously. This method directly relies on control cells behaving normally at the day of assay commencement because it compares the growth of treated cells with that of untreated cells in control wells on the same plate. The results are therefore a percentile difference from the calculated expected value. […] If, however, all of the tested concentrations produce PGs exceeding the respective reference level of effect (e.g., PG value of 50) for a given cell line, the highest tested concentration is assigned as the default value (in the screening data report that default value is preceded by a “>” sign). Each test point was performed in quadruplicate in three individual experiments. The results were statistically analyzed (ANOVA, Tukey post-hoc test at p < 0.05).

[2] = system: MCF-7 (breast epithelial adenocarcinoma, metastatic); assay: MTT proliferation assay, MCF-7 cells; assay type: cell-based, human; settings: read-out: IC50 (50% growth inhibition) MCF-7
Description: as §1, §2, §3

[3] = system: BJ (normal diploid human fibroblasts); assay: MTT proliferation assay, BJ normal fibroblasts; assay type: cell-based; settings: 72 h, read-out: IC50 (50% growth inhibition) BJ
Description: as §1, §2, §3

[4] = system: HeLa (cervical carcinoma); assay: MTT proliferation assay, HeLa cells; assay type: cell-based, human; settings: 72 h, read-out: IC50 (50% growth inhibition) HeLa
Description: as §1, §2, §3

[5] = system: HepG2 (hepatocellular carcinoma); assay: MTT proliferation assay, HepG2 cells; assay type: cell-based, human; settings: 72 h, read-out: IC50 (50% growth inhibition) HepG2
Description: as §1, §2, §3

Row | IC50 ([1]; 72 h) | IC50 ([2]; 72 h) [µM] | IC50 [4] [µM] | IC50 [5] | IC50 ([1]; Homo sapiens, SW-620, 72 h) [µM] | IC50 ([2]; Homo sapiens, MCF7, 72 h) [µM] | IC50 ([4]; Homo sapiens, HeLa) [µM] | IC50 ([5]; Homo sapiens) [µM] | melting point [°C] | Compound | IC50 [3] [µM] | IC50 ([3]; Homo sapiens, Fibroblast) [µM]
1 | > 100 µM | > 100 | > 100 | > 100 µM | – | – | – | – | – | 1-((7-Hydroxy-2-oxo-2H-chromen-4-yl)methyl)-6-chloropurine [Compound 8] | > 100 | –
2 | – | – | – | – | > 100 | > 100 | > 100 | > 100 | – | COc1ccc(C(CCO)Cn2cncn2)c(O)c1 (stereo not drawn) [Compound 16, 1-(4-hydroxy-2-(2-hydroxy-4-methoxyphenyl)butyl)-1,2,4-triazole] | – | > 100
3 | – | – | – | – | > 100 | > 100 | > 100 | > 100 | 216 to 218 | COC(=O)c1ncn(Cc2cc(=O)oc3cc(O)ccc23)n1 [Compound 3, Methyl 1-((7-hydroxy-2-oxo-2H-chromen-4-yl)methyl)-1,2,4-triazole-3-carboxylate] | – | > 100
4 | – | – | – | – | > 100 | > 100 | > 100 | > 100 | – | CCOC(=O)c1ncn(CC(CCO)c2ccc(OC)cc2O)n1 (stereo not drawn) [Compound 14, Ethyl 1-(4-hydroxy-2-(2-hydroxy-4-methoxyphenyl)butyl)-1,2,4-triazole-3-carboxylate] | – | > 100
5 | – | – | – | – | > 100 | > 100 | > 100 | > 100 | – | COc1ccc(C(CCO)Cn2cnc(C(N)=O)n2)c(O)c1 (stereo not drawn) [Compound 15, 1-(4-Hydroxy-2-(2-hydroxy-4-methoxyphenyl)butyl)-1,2,4-triazole-3-carboxamide] | – | > 100
6 | – | – | 35.5 ± 13.5 | – | > 100 | > 100 | 35 | > 100 | – | COc1ccc2c(Cn3cnc(C(N)=O)n3)cc(=O)oc2c1 [Compound 6, 1-((7-Methoxy-2-oxo-2H-chromen-4-yl)methyl)-1,2,4-triazole-3-carboxamide] | – | > 100
7 | – | – | – | – | > 100 | > 100 | > 100 | > 100 | 238 to 240 | N#Cc1ncn(Cc2cc(=O)oc3cc(O)ccc23)c1C#N [Compound 7, 1-((7-Hydroxy-2-oxo-2H-chromen-4-yl)methyl)-4,5-dicyanoimidazole] | – | > 100
8 | > 100 µM | > 100 | > 100 | > 100 µM | – | – | – | – | – | 1-(4-Hydroxy-2-(2-hydroxy-4-methoxyphenyl)butyl)guanine [Compound 18] | > 100 | –
9 | > 100 µM | > 100 | > 100 | > 100 µM | – | – | – | – | – | 1-((7-Methoxy-2-oxo-2H-chromen-4-yl)methyl)guanine [Compound 13] | > 100 | –
10 | > 100 µM | > 100 | > 100 | > 100 µM | – | – | – | – | – | 1-((7-Methoxy-2-oxo-2H-chromen-4-yl)methyl)-2-amino-6-chloropurine [Compound 12] | > 100 | –
11 | > 100 µM | > 100 | > 100 | > 100 µM | – | – | – | – | – | 1-((7-Hydroxy-2-oxo-2H-chromen-4-yl)methyl)purine [Compound 9] | > 100 | –
12 | 35 µM and 35.4 µM | > 100 | 34 ± 8.4 | 25 µM and 25.6 µM | – | – | – | – | – | 1-((7-Hydroxy-2-oxo-2H-chromen-4-yl)methyl)-2-amino-6-chloropurine [Compound 10] | > 100 | –
13 | – | – | – | – | > 100 | > 100 | > 100 | > 100 | – | COc1ccc(C(CCO)Cn2cnc(CO)n2)c(O)c1 (stereo not drawn) [Compound 17, ethyl 1-(4-hydroxy-2-(2-hydroxy-4-methoxyphenyl)butyl)-1,2,4-triazole-3-hydroxymethyl] | – | > 100
14 | – | – | – | – | > 100 | > 100 | > 100 | > 100 | – | NC(=O)c1ncn(Cc2cc(=O)oc3cc(O)ccc23)n1 [Compound 4, 1-((7-Hydroxy-2-oxo-2H-chromen-4-yl)methyl)-1,2,4-triazole-3-carboxamide] | – | > 100
15 | > 100 µM | > 100 | > 100 | > 100 µM | – | – | – | – | – | 1-((7-Hydroxy-2-oxo-2H-chromen-4-yl)methyl)-2-aminopurine [Compound 11] | > 100 | –
16 | – | – | – | – | > 100 | > 100 | > 100 | > 100 | 234 to 237 | COC(=O)c1ncn(Cc2cc(=O)oc3cc(OC)ccc23)n1 [Compound 5, Methyl 1-((7-Methoxy-2-oxo-2H-chromen-4-yl)methyl)-1,2,4-triazole-3-carboxylate] | – | > 100
